These results are taken from BindingDB's records for doi:10.1016/S0960-894X(01)80901-X (1993).

By Ki is commonly meant a measure of affinity in units of concentration, obtained from inhibition or displacement. A lower Ki goes with tighter binding.

This experiment addresses Neuromedin-K/NK2 receptor (tachykinin receptor 2), Rattus norvegicus. As to the kind of experiment: Tested in vitro to inhibit the binding of [125I]NKA to its receptor in rat duodenum membrane.

The compound `CC(=O)NC1(c2ccccc2)CCN(CC[C@H](CN(C)C(=O)c2ccccc2)c2ccc(Cl)c(Cl)c2)CC1` [N-[(R)-4-(4-Acetylamino-4-phenyl-piperidin-1-yl)-2-(3,4-dichloro-phenyl)-butyl]-N-methyl-benzamide] registered a Ki of 0.51 nM.
